Experimental data taken from patent US10538490B2, “Benzylaminopyridylcyclopropanecarboxylic acids, pharmaceutical compositions and uses thereof” (Boehringer Ingelheim International GmbH, priority 2016, dated 2020).

target: human GPR40 receptor (Homo sapiens, UniProt O14842); experiment: IP1 accumulation measurements using the IPOne assay system; type: cell-based; conditions: 1321N1 cells stably expressing human GPR40 receptor, stimulation 1 h at 37° C.
Procedure: IP1 accumulation measurements using the IPOne assay system—1321N1 cells stably expressing human GPR40 receptor (Euroscreen, Belgium) are seeded 24 h before the assay in white 384-well plates in culture medium containing 10% FCS, 1% Na-Pyruvate and 400 μg/mL G418. IPi is assayed according to the manufacturer's description (Cisbio Bioassays, France). In brief, the assay is started by substitution of the culture medium by stimulation buffer (Hepes 10 mM, CaCl2 1 mM, MgCl2 0.5 mM, KCl 4.2 mM, NaCl 146 mM, glucose 5.5 mM and LiCl 50 mM, pH 7.4). Cells are stimulated for 1 h at 37° C., 5% CO2 by addition of the compounds that are diluted in stimulation buffer containing LiCl. Assays are stopped by adding HTRF-conjugates (IP1-d2 and Anti-IP1 cryptate Tb) and lysis buffer, provided by the manufacturer. After an incubation time of 1 h at room temperature plates are measured using an EnVision™, Perkin Elmer. The obtained fluorescence ratios at 665/615 […] are then used to calculate the pEC50 values using Assay Explorer 3.3 Software (Accelrys, Inc.) by interpolation using an IP1 reference curve and subsequent sigmoidal curve fitting allowing for a variable hill slope.

human GPR40 receptor, sequence (O14842 whole entry): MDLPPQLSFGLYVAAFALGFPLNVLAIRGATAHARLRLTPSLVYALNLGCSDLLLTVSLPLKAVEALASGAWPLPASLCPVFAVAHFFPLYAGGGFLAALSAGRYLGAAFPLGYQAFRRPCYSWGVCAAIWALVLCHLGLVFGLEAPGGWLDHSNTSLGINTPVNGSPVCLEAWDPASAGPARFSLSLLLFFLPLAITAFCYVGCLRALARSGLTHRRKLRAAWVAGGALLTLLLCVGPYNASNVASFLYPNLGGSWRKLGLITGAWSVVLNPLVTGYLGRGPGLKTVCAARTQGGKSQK

Structure (SMILES) | EC50
O=C(O)[C@H]1C[C@@H]1c1ccc(NCc2cc(-c3ccccc3C(F)(F)F)c(F)cc2F)nc1 [Example 66] | 48 nM
Cc1cc(-c2nnn(CC(C)(C)O)n2)cc(C)c1-c1ccc(F)c(CNc2ccc([C@H]3C[C@@H]3C(=O)O)cn2)c1 [Example 14] | 11 nM
Cc1cc(OC2CCOCC2)cc(C)c1-c1cc(CNc2ccc([C@H]3C[C@@H]3C(=O)O)cn2)c(F)cc1F [Example 84] | 57 nM
Cc1cc(C(=O)O)cc(C)c1-c1ccc(F)c(CNc2ccc([C@H]3C[C@@H]3C(=O)O)cn2)c1 [Example 27] | > 10000 nM
CNC(=O)c1cc(C)c(-c2cc(CNc3ccc([C@H]4C[C@@H]4C(=O)O)cn3)c(F)cc2F)c(C)c1 [Example 102] | 420 nM
O=C(O)[C@H]1C[C@@H]1c1ccc(NCc2cc(-c3c(Cl)cccc3Cl)c(F)cc2F)nc1 [Example 73] | 40 nM
O=C(O)[C@H]1C[C@@H]1c1ccc(NCc2cc(-c3c(F)cc(F)cc3F)c(F)cc2F)nc1 [Example 81] | 491 nM
COc1cc(OC)c(F)c(-c2ccc(F)c(CNc3ccc([C@H]4C[C@@H]4C(=O)O)cn3)c2)c1F [Example 52] | 1340 nM
Cc1cc(OCC2CCOC2)cc(C)c1-c1ccc(F)c(CNc2ccc([C@H]3C[C@@H]3C(=O)O)cn2)c1 (some centres unmarked) [Example 36] | 85 nM
Cc1cc(C(=O)O)cc(C)c1-c1cc(CNc2ccc([C@H]3C[C@@H]3C(=O)O)cn2)c(F)cc1F [Example 69] | 5960 nM
COc1cc(OC)c(-c2cc(CNc3ccc([C@H]4C[C@@H]4C(=O)O)cn3)c(F)cc2F)c(OC)c1 [Example 72] | 838 nM
Cc1cc(OCC2CCOCC2)cc(C)c1-c1ccc(F)c(CNc2ccc([C@H]3C[C@@H]3C(=O)O)cn2)c1 [Example 58] | 43 nM
COc1cc(F)c(-c2cc(CNc3ccc([C@H]4C[C@@H]4C(=O)O)cn3)c(F)cc2F)c(F)c1 [Example 62] | 668 nM
N#Cc1cccc(C#N)c1-c1ccc(F)c(CNc2ccc([C@H]3C[C@@H]3C(=O)O)cn2)c1 [Example 23] | > 10000 nM
Cc1cc(OCC2(O)CCSCC2)cc(C)c1-c1ccc(F)c(CNc2ccc([C@H]3C[C@@H]3C(=O)O)cn2)c1 [Example 16] | 64 nM
Cc1cc(C(N)=O)cc(C)c1-c1ccc(F)c(CNc2ccc([C@H]3C[C@@H]3C(=O)O)cn2)c1 [Example 34] | 612 nM
Cc1cc(-c2cnccn2)cc(C)c1-c1ccc(F)c(CNc2ccc([C@H]3C[C@@H]3C(=O)O)cn2)c1 [Example 11] | 21 nM
Cc1cc(OCCCS(C)(=O)=O)cc(C)c1-c1ccc(F)c(CNc2ccc([C@H]3C[C@@H]3C(=O)O)cn2)c1 [Example 12] | > 10000 nM
Cc1cc(OCC(C)(C)C#N)cc(C)c1-c1cc(CNc2ccc([C@H]3C[C@@H]3C(=O)O)cn2)c(F)cc1F [Example 88] | 81 nM
Cc1cc(-c2ccn(C)c(=O)c2)cc(C)c1-c1ccc(F)c(CNc2ccc([C@H]3C[C@@H]3C(=O)O)cn2)c1 [Example 44] | 32 nM

Structure (SMILES) | EC50
N#CC1(c2ccccc2-c2ccc(F)c(CNc3ccc([C@H]4C[C@@H]4C(=O)O)cn3)c2)CC1 [Example 32] | 1940 nM
N#CC1(c2ccccc2-c2cc(CNc3ccc([C@H]4C[C@@H]4C(=O)O)cn3)c(F)cc2F)CC1 [Example 74] | 1340 nM
CNC(=O)c1cc(C)c(-c2ccc(F)c(CNc3ccc([C@H]4C[C@@H]4C(=O)O)cn3)c2)c(C)c1 [Example 59] | 375 nM
O=C(O)[C@H]1C[C@@H]1c1ccc(NCc2ccc(C(F)(F)F)c(-c3ccc(OC(F)(F)F)cc3)c2)nc1 [Example 6, (1S,2S)-2-{6-[(4′-Trifluoromethoxy-6-trifluoromethyl-biphenyl-3-ylmethyl)-amino]-pyridin-3-yl}-cyclopropanecarboxylic Acid] | 38 nM
O=C(O)[C@H]1C[C@@H]1c1ccc(NCc2cc(-c3c(F)cccc3F)ccc2F)nc1 [Example 20] | 2300 nM
COc1cc(OC)c(Cl)c(-c2cc(CNc3ccc([C@H]4C[C@@H]4C(=O)O)cn3)c(F)cc2F)c1Cl [Example 75] | 50 nM
Cc1cc(OCCC(C)(C)O)cc(C)c1-c1cc(CNc2ccc([C@H]3C[C@@H]3C(=O)O)cn2)ccc1C(F)(F)F [Example 5, (1S,2S)-2-(6-{[4′-(3-Hydroxy-3-methyl-butoxy)-2′,6′-dimethyl-6-trifluoromethyl-biphenyl-3-ylmethyl]-amino}-pyridin-3-yl)-cyclopropanecarboxylic Acid] | 12 nM
O=C(O)[C@H]1C[C@@H]1c1ccc(NCc2cc(-c3c(Cl)cccc3Cl)ccc2F)nc1 [Example 31] | 105 nM
Cc1cc(OCC(=O)O)cc(C)c1-c1ccc(F)c(CNc2ccc([C@H]3C[C@@H]3C(=O)O)cn2)c1 [Example 17] | 353 nM
Nc1cc(F)c(-c2cc(CNc3ccc([C@H]4C[C@@H]4C(=O)O)cn3)c(F)cc2F)c(F)c1 [Example 70] | 3630 nM
COc1c(F)c(F)c(-c2cc(CNc3ccc([C@H]4C[C@@H]4C(=O)O)cn3)c(F)cc2F)c(F)c1F [Example 64] | 123 nM
Cc1cc(OCc2ccccc2)cc(C)c1-c1cc(CNc2ccc([C@H]3C[C@@H]3C(=O)O)cn2)c(F)cc1F [Example 89] | 65 nM
Cc1cc(OCC2(O)CCS(=O)(=O)CC2)cc(C)c1-c1ccc(F)c(CNc2ccc([C@H]3C[C@@H]3C(=O)O)cn2)c1 [Example 57] | 422 nM
Nc1cc(F)c(-c2ccc(F)c(CNc3ccc([C@H]4C[C@@H]4C(=O)O)cn3)c2)c(F)c1 [Example 28] | 6720 nM
O=C(O)[C@H]1C[C@@H]1c1ccc(NCc2cc(-c3c(F)cc(OC4CC4)cc3F)ccc2F)nc1 [Example 29] | 570 nM
Cc1cc(OCC2(C)COC2)cc(C)c1-c1cc(CNc2ccc([C@H]3C[C@@H]3C(=O)O)cn2)c(F)cc1F [Example 87] | 89 nM
Cc1cc(-c2ccn(C)c(=O)n2)cc(C)c1-c1ccc(F)c(CNc2ccc([C@H]3C[C@@H]3C(=O)O)cn2)c1 [Example 49] | 72 nM
Cc1cc(-c2ccnn2C)cc(C)c1-c1ccc(F)c(CNc2ccc([C@H]3C[C@@H]3C(=O)O)cn2)c1 [Example 50] | 25 nM
Cc1cc(CO)cc(C)c1-c1cc(CNc2ccc([C@H]3C[C@@H]3C(=O)O)cn2)c(F)cc1F [Example 82] | 236 nM
CC(C)c1ccccc1-c1ccc(F)c(CNc2ccc([C@H]3C[C@@H]3C(=O)O)cn2)c1 [Example 54] | 317 nM

Structure (SMILES) | EC50
Cc1cc(OCC2(O)CCSCC2)cc(C)c1-c1cc(CNc2ccc([C@H]3C[C@@H]3C(=O)O)cn2)c(F)cc1F [Example 98] | 102 nM
Cc1cc(OCC2CCOCC2)cc(C)c1-c1cc(CNc2ccc([C@H]3C[C@@H]3C(=O)O)cn2)c(F)cc1F [Example 101] | 39 nM
O=C(O)[C@H]1C[C@@H]1c1ccc(NCc2cc(-c3ccccc3C(F)(F)F)ccc2F)nc1 [Example 24] | 204 nM
Cc1cc(O[C@H]2CCOC2)cc(C)c1-c1cc(CNc2ccc([C@H]3C[C@@H]3C(=O)O)cn2)c(F)cc1F [Example 79] | 42 nM
COc1cc(OC)c(Cl)c(-c2ccc(F)c(CNc3ccc([C@H]4C[C@@H]4C(=O)O)cn3)c2)c1Cl [Example 33] | 128 nM
Cc1cc(C(N)=O)cc(C)c1-c1cc(CNc2ccc([C@H]3C[C@@H]3C(=O)O)cn2)c(F)cc1F [Example 76] | 340 nM
COc1c(F)c(F)c(-c2ccc(F)c(CNc3ccc([C@H]4C[C@@H]4C(=O)O)cn3)c2)c(F)c1F [Example 22] | 477 nM
Cc1cc(OCC(C)(C)C#N)cc(C)c1-c1ccc(F)c(CNc2ccc([C@H]3C[C@@H]3C(=O)O)cn2)c1 [Example 46] | 96 nM
O=C(O)[C@H]1C[C@@H]1c1ccc(NCc2cc(-c3c(F)cccc3F)c(F)cc2F)nc1 [Example 63] | 931 nM
Cc1cc(OCC2CCOC2)cc(C)c1-c1cc(CNc2ccc([C@H]3C[C@@H]3C(=O)O)cn2)c(F)cc1F (some centres unmarked) [Example 78] | 5 nM
Cc1cc(OCC(C)(C)O)cc(C)c1-c1cc(CNc2ccc([C@H]3C[C@@H]3C(=O)O)cn2)c(F)cc1F [Example 83] | 104 nM
Cc1cc(-c2cc(=O)n(C)cn2)cc(C)c1-c1cc(CNc2ccc([C@H]3C[C@@H]3C(=O)O)cn2)c(F)cc1F [Example 85] | 25 nM
Cc1cc(OCc2ccccc2)cc(C)c1-c1ccc(F)c(CNc2ccc([C@H]3C[C@@H]3C(=O)O)cn2)c1 [Example 47] | 107 nM
N#Cc1cccc(C#N)c1-c1cc(CNc2ccc([C@H]3C[C@@H]3C(=O)O)cn2)c(F)cc1F [Example 65] | > 10000 nM
Cc1cc(-c2ccn(C)c(=O)n2)cc(C)c1-c1cc(CNc2ccc([C@H]3C[C@@H]3C(=O)O)cn2)c(F)cc1F [Example 91] | 43 nM
Cc1cc(OCCCS(C)(=O)=O)cc(C)c1-c1cccc(CNc2ccc([C@H]3C[C@@H]3C(=O)O)cn2)c1 [Example 8, (1S,2S)-2-(6-{[4′-(3-Methanesulfonyl-propoxy)-2′,6′-dimethyl-biphenyl-3-ylmethyl]-amino}-pyridin-3-yl)-cyclopropanecarboxylic Acid] | 50 nM
Cc1cc(C(=O)N(C)C)cc(C)c1-c1cc(CNc2ccc([C@H]3C[C@@H]3C(=O)O)cn2)c(F)cc1F [Example 103] | 462 nM
O=C(O)[C@H]1C[C@@H]1c1ccc(NCc2cc(-c3c(F)cc(OC4CC4)cc3F)c(F)cc2F)nc1 [Example 71] | 140 nM
Cc1cc(OCC2(O)CCS(=O)(=O)CC2)cc(C)c1-c1cc(CNc2ccc([C@H]3C[C@@H]3C(=O)O)cn2)c(F)cc1F [Example 100] | 101 nM
